# Experimental data reported in PubChem BioAssay (NCI).
#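 Method: 48-hour compound exposure of cells in 96-well plates, five concentrations, linear interpolation of endpoints. GI50 is the concentration that inhibits growth by half. TGI is the concentration that stops growth completely.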
# Key:
# Assay in all cases: NCI-60 cell line screen, 48 h
# SK-OV-3 ovarian = tested on: SK-OV-3 ovarian
# 786-0 renal = tested on: 786-0 renal
# T-47D breast = tested on: T-47D breast
# KM12 colon = tested on: KM12 colon
# BT-549 breast = tested on: BT-549 breast
# MDA-MB-468 breast = tested on: MDA-MB-468 breast
# EKVX NSCLC = tested on: EKVX NSCLC
# TK-10 renal = tested on: TK-10 renal
# SF-268 CNS = tested on: SF-268 CNS
# OVCAR-4 ovarian = tested on: OVCAR-4 ovarian
# MDA-MB-231 breast = tested on: MDA-MB-231 breast
# A549 NSCLC = tested on: A549 NSCLC
# SK-MEL-2 melanoma = tested on: SK-MEL-2 melanoma
# K-562 leukemia = tested on: K-562 leukemia
# NCI-H460 lung = tested on: NCI-H460 lung
# SF-295 CNS = tested on: SF-295 CNS
# U251 CNS = tested on: U251 CNS
# LOX IMVI melanoma = tested on: LOX IMVI melanoma
# ACHN renal = tested on: ACHN renal
# PC-3 prostate = tested on: PC-3 prostate
# DU-145 prostate = tested on: DU-145 prostate
# HT29 colon = tested on: HT29 colon
# IGROV1 ovarian = tested on: IGROV1 ovarian
# HCT-116 colon = tested on: HCT-116 colon
# UACC-257 melanoma = tested on: UACC-257 melanoma
# MOLT-4 leukemia = tested on: MOLT-4 leukemia
# COLO 205 colon = tested on: COLO 205 colon
# CAKI-1 renal = tested on: CAKI-1 renal
# M14 melanoma = tested on: M14 melanoma
# MCF7 breast = tested on: MCF7 breast
# SK-MEL-28 melanoma = tested on: SK-MEL-28 melanoma
# NCI-H226 lung = tested on: NCI-H226 lung
# HCC-2998 colon = tested on: HCC-2998 colon
# UACC-62 melanoma = tested on: UACC-62 melanoma
# RXF 393 renal = tested on: RXF 393 renal
# OVCAR-3 ovarian = tested on: OVCAR-3 ovarian
# HCT-15 colon = tested on: HCT-15 colon
# A498 renal = tested on: A498 renal
# SR leukemia = tested on: SR leukemia
# MDA-MB-435 = tested on: MDA-MB-435
# MALME-3M melanoma = tested on: MALME-3M melanoma
# HOP-92 NSCLC = tested on: HOP-92 NSCLC
# HOP-62 NSCLC = tested on: HOP-62 NSCLC
# RPMI-8226 leukemia = tested on: RPMI-8226 leukemia
# CCRF-CEM leukemia = tested on: CCRF-CEM leukemia
# NCI-H522 lung = tested on: NCI-H522 lung
# NCI/ADR-RES ovarian = tested on: NCI/ADR-RES ovarian
# NCI-H23 lung = tested on: NCI-H23 lung
# HL-60(TB) leukemia = tested on: HL-60(TB) leukemia
# SNB-19 CNS = tested on: SNB-19 CNS
# UO-31 renal = tested on: UO-31 renal
# OVCAR-8 ovarian = tested on: OVCAR-8 ovarian
# HS 578T breast = tested on: HS 578T breast
# SF-539 CNS = tested on: SF-539 CNS
# SNB-75 CNS = tested on: SNB-75 CNS
# SK-MEL-5 melanoma = tested on: SK-MEL-5 melanoma
# OVCAR-5 ovarian = tested on: OVCAR-5 ovarian
# SN12C renal = tested on: SN12C renal
# SW-620 colon = tested on: SW-620 colon
structure (smiles),measurement,setting,value
COc1ccc(-c2nc3ccc(-c4nnc(SCc5ccccc5)o4)cc3[nH]2)cc1,GI50,SK-OV-3 ovarian,5.51 µM
same,TGI,SK-OV-3 ovarian,21.5 µM
same,GI50,786-0 renal,1.97 µM
same,TGI,786-0 renal,4.26 µM
same,GI50,T-47D breast,2.02 µM
same,TGI,T-47D breast,4.84 µM
same,GI50,KM12 colon,11.3 µM
same,TGI,KM12 colon,> 100 µM
same,GI50,BT-549 breast,3.27 µM
same,TGI,BT-549 breast,7.64 µM
same,GI50,MDA-MB-468 breast,2.36 µM
same,TGI,MDA-MB-468 breast,7.36 µM
same,GI50,EKVX NSCLC,3.98 µM
same,TGI,EKVX NSCLC,16.6 µM
same,GI50,TK-10 renal,3.13 µM
same,TGI,TK-10 renal,8.83 µM
same,GI50,SF-268 CNS,3.53 µM
same,TGI,SF-268 CNS,13.7 µM
same,GI50,OVCAR-4 ovarian,2.12 µM
same,TGI,OVCAR-4 ovarian,5.08 µM
same,GI50,MDA-MB-231 breast,2.55 µM
same,TGI,MDA-MB-231 breast,6.3 µM
same,GI50,A549 NSCLC,3.48 µM
same,TGI,A549 NSCLC,13.8 µM
same,GI50,SK-MEL-2 melanoma,2.44 µM
same,TGI,SK-MEL-2 melanoma,7.73 µM
same,GI50,K-562 leukemia,2.9 µM
same,TGI,K-562 leukemia,24.8 µM
same,GI50,NCI-H460 lung,3.71 µM
same,TGI,NCI-H460 lung,16.3 µM
same,GI50,SF-295 CNS,2.07 µM
same,TGI,SF-295 CNS,4.42 µM
same,GI50,U251 CNS,2.07 µM
same,TGI,U251 CNS,4.6 µM
same,GI50,LOX IMVI melanoma,1.91 µM
same,TGI,LOX IMVI melanoma,3.73 µM
same,GI50,ACHN renal,2.48 µM
same,TGI,ACHN renal,6 µM
same,GI50,PC-3 prostate,3.1 µM
same,TGI,PC-3 prostate,11.2 µM
same,GI50,DU-145 prostate,6.89 µM
same,TGI,DU-145 prostate,23.4 µM
same,GI50,HT29 colon,3.48 µM
same,TGI,HT29 colon,12 µM
same,GI50,IGROV1 ovarian,10.7 µM
same,TGI,IGROV1 ovarian,23.9 µM
same,GI50,HCT-116 colon,3.66 µM
same,TGI,HCT-116 colon,15.7 µM
same,GI50,UACC-257 melanoma,4.81 µM
same,TGI,UACC-257 melanoma,23.1 µM
same,GI50,MOLT-4 leukemia,3.58 µM
same,TGI,MOLT-4 leukemia,> 100 µM
same,GI50,COLO 205 colon,15.9 µM
same,TGI,COLO 205 colon,89.1 µM
same,GI50,CAKI-1 renal,1.98 µM
same,TGI,CAKI-1 renal,3.81 µM
same,GI50,M14 melanoma,4.25 µM
same,TGI,M14 melanoma,26.5 µM
same,GI50,MCF7 breast,2.86 µM
same,TGI,MCF7 breast,12.8 µM
same,GI50,SK-MEL-28 melanoma,3.14 µM
same,TGI,SK-MEL-28 melanoma,12.2 µM
same,GI50,NCI-H226 lung,1.76 µM
same,TGI,NCI-H226 lung,3.84 µM
same,GI50,HCC-2998 colon,13.2 µM
same,TGI,HCC-2998 colon,78.9 µM
same,GI50,UACC-62 melanoma,2.15 µM
same,TGI,UACC-62 melanoma,6.05 µM
same,GI50,RXF 393 renal,2.2 µM
same,TGI,RXF 393 renal,7.45 µM
same,GI50,OVCAR-3 ovarian,2.82 µM
same,TGI,OVCAR-3 ovarian,6.37 µM
same,GI50,HCT-15 colon,2.97 µM
same,TGI,HCT-15 colon,11.9 µM
same,GI50,A498 renal,2.17 µM
same,TGI,A498 renal,3.97 µM
same,GI50,SR leukemia,4.76 µM
same,TGI,SR leukemia,> 100 µM
same,GI50,MDA-MB-435,3.05 µM
same,TGI,MDA-MB-435,11.3 µM
same,GI50,MALME-3M melanoma,1.81 µM
same,TGI,MALME-3M melanoma,3.58 µM
same,GI50,HOP-92 NSCLC,6.46 µM
same,TGI,HOP-92 NSCLC,24 µM
same,GI50,HOP-62 NSCLC,3.17 µM
same,TGI,HOP-62 NSCLC,9.51 µM
same,GI50,RPMI-8226 leukemia,2.96 µM
same,TGI,RPMI-8226 leukemia,17.4 µM
same,GI50,CCRF-CEM leukemia,2.82 µM
same,TGI,CCRF-CEM leukemia,19.6 µM
same,GI50,NCI-H522 lung,2.27 µM
same,TGI,NCI-H522 lung,7.08 µM
same,GI50,NCI/ADR-RES ovarian,2.51 µM
same,TGI,NCI/ADR-RES ovarian,7.69 µM
same,GI50,NCI-H23 lung,4.21 µM
same,TGI,NCI-H23 lung,19.8 µM
same,GI50,HL-60(TB) leukemia,2.79 µM
same,TGI,HL-60(TB) leukemia,15.5 µM
same,GI50,SNB-19 CNS,7.81 µM
same,TGI,SNB-19 CNS,21 µM
same,GI50,UO-31 renal,4.16 µM
same,TGI,UO-31 renal,16.1 µM
same,GI50,OVCAR-8 ovarian,1.91 µM
same,TGI,OVCAR-8 ovarian,3.87 µM
same,GI50,HS 578T breast,2.77 µM
same,TGI,HS 578T breast,7.29 µM
same,GI50,SF-539 CNS,1.73 µM
same,TGI,SF-539 CNS,3.22 µM
same,GI50,SNB-75 CNS,1.66 µM
same,TGI,SNB-75 CNS,3.27 µM
same,GI50,SK-MEL-5 melanoma,2.64 µM
same,TGI,SK-MEL-5 melanoma,9.41 µM
same,GI50,OVCAR-5 ovarian,15.6 µM
same,TGI,OVCAR-5 ovarian,38.5 µM
same,GI50,SN12C renal,2.07 µM
same,TGI,SN12C renal,4.88 µM
same,GI50,SW-620 colon,7.02 µM
same,TGI,SW-620 colon,44.2 µM
